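48-hour exposure; five concentrations; linearly interpolated endpoints. Abbreviation: GI50, concentration required for 50% inhibition of growth. TGI: concentration producing complete growth inhibition.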
Columns and labels:
Experiment in all cases: DTP human tumour cell line panel, 48 h
ACHN renal = system: ACHN renal
BT-549 breast = system: BT-549 breast
786-0 renal = system: 786-0 renal
OVCAR-3 ovarian = system: OVCAR-3 ovarian
TK-10 renal = system: TK-10 renal
NCI-H23 lung = system: NCI-H23 lung
SK-OV-3 ovarian = system: SK-OV-3 ovarian
A498 renal = system: A498 renal
IGROV1 ovarian = system: IGROV1 ovarian
OVCAR-8 ovarian = system: OVCAR-8 ovarian
SF-539 CNS = system: SF-539 CNS
SNB-75 CNS = system: SNB-75 CNS
NCI-H226 lung = system: NCI-H226 lung
U251 CNS = system: U251 CNS
HCT-116 colon = system: HCT-116 colon
LOX IMVI melanoma = system: LOX IMVI melanoma
HT29 colon = system: HT29 colon
SK-MEL-5 melanoma = system: SK-MEL-5 melanoma
A549 NSCLC = system: A549 NSCLC
CCRF-CEM leukemia = system: CCRF-CEM leukemia
K-562 leukemia = system: K-562 leukemia
HCT-15 colon = system: HCT-15 colon
HS 578T breast = system: HS 578T breast
OVCAR-5 ovarian = system: OVCAR-5 ovarian
UACC-62 melanoma = system: UACC-62 melanoma
RXF 393 renal = system: RXF 393 renal
PC-3 prostate = system: PC-3 prostate
MALME-3M melanoma = system: MALME-3M melanoma
SNB-19 CNS = system: SNB-19 CNS

## CCCCCCc1cc2cc(-c3nc4ccccc4[nH]3)c(=Nc3ccccc3C)oc2cc1O
ACHN renal
  TGI: 5.24 µM
BT-549 breast
  GI50: 1830 nM
  TGI: 3.55 µM
786-0 renal
  GI50: 1880 nM
  TGI: 3.43 µM
OVCAR-3 ovarian
  GI50: 1770 nM
  TGI: 3.28 µM
TK-10 renal
  GI50: 2270 nM
  TGI: 4.48 µM
NCI-H23 lung
  GI50: 2460 nM
  TGI: 5.87 µM
SK-OV-3 ovarian
  GI50: 3.57 µM
  TGI: 13.7 µM
A498 renal
  GI50: 4.02 µM
  TGI: 16.8 µM
IGROV1 ovarian
  GI50: 2070 nM
  TGI: 5.89 µM
OVCAR-8 ovarian
  GI50: 2260 nM
  TGI: 6.05 µM
SF-539 CNS
  GI50: 1830 nM
  TGI: 3.75 µM
SNB-75 CNS
  GI50: 1410 nM
  TGI: 3.49 µM
NCI-H226 lung
  GI50: 2550 nM
  TGI: 10.3 µM
U251 CNS
  GI50: 1710 nM
  TGI: 3.3 µM
HCT-116 colon
  GI50: 1830 nM
  TGI: 3.63 µM
LOX IMVI melanoma
  GI50: 1870 nM
  TGI: 3.74 µM
HT29 colon
  GI50: > 100 µM
  TGI: > 100 µM
SK-MEL-5 melanoma
  GI50: 2000 nM
  TGI: 4.96 µM
A549 NSCLC
  GI50: 2440 nM
  TGI: 6.29 µM
CCRF-CEM leukemia
  GI50: 2770 nM
  TGI: 9.59 µM
K-562 leukemia
  GI50: 3.1 µM
  TGI: 9.29 µM
HCT-15 colon
  GI50: 2170 nM
  TGI: 5.34 µM
HS 578T breast
  GI50: 2370 nM
  TGI: 6.71 µM
OVCAR-5 ovarian
  GI50: 3.64 µM
  TGI: 29 µM
UACC-62 melanoma
  GI50: 1620 nM
  TGI: 3.41 µM
RXF 393 renal
  GI50: 1850 nM
  TGI: 3.95 µM
PC-3 prostate
  GI50: 2300 nM
  TGI: 7.98 µM
MALME-3M melanoma
  GI50: 1810 nM
  TGI: 3.62 µM
SNB-19 CNS
  GI50: 3.58 µM
  TGI: 22 µM
